Literature values as cited in US20210106004A1, “THERMOPLASTIC MATERIALS HAVING BENEFICIAL PROPERTIES AND PROCESSES FOR PROVIDING THE SAME” (QuadSil, Inc., priority 2016, published 2021).

Details: background statement

For CCCCCCCCCCCCCCCCCC[N+](C)(C)CCC[Si](OC)(OC)OC.[Cl-] [3-(trimethoxysilyl) propyldimethyloctadecyl ammonium chloride], the “temperature at which thermal decomposition begins” value is listed as 125 °C.
